As usually defined, the inhibition is the drop in the measured response relative to a control, in per cent.

SMILES strings stand for the structures.

Among the data in patent US8158628B2, “Sulfonylated 1,2,3,4-tetrahydropyrrolo[1,2-a]pyrazine compounds and their use as pharmaceuticals” (Gruenenthal GmbH, priority 2009, dated 2012) are inhibition values, retold here.

One experiment addresses T1, B1R of the rat (Rattus norvegicus, UniProt P97583).
T1 construct: expressed in transfected cells; host or cells: CHO K1 cells (Chinese hamster ovary), stably transfected
T1 sequence (P97583 1-337): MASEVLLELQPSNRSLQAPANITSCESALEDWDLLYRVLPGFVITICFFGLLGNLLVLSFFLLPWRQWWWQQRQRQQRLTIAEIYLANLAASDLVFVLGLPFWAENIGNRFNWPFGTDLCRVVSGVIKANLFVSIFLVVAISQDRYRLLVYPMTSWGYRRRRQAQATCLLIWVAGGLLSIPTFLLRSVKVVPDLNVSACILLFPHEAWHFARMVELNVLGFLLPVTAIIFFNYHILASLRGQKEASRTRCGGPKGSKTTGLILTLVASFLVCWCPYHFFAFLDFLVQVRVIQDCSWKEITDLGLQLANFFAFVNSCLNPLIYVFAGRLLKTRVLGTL
As to the kind of experiment: FLIPR Ca2+ functional assay, B1R antagonism, rat B1R in CHO K1 cells. Format: cell-based. The following applies: test substance 10 μM; rB1R CHO K1 cells; agonist Des-Arg9 bradykinin at EC80; % of maximum achievable inhibition. Put shortly:
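Stably transfected CHO K1 cells loaded with Fluo-4; Ca2+ fluorescence read on FLIPR (ex 488/em 540 nm). Compound preincubated 10-20 min, then agonist at EC80: Lys-Des-Arg9 bradykinin (human) or Des-Arg9 bradykinin (rat). % inhibition vs maximal inhibition; IC50 from concentration series, n=2-3, N>=2.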

The next experiment concerns the target T2, human B1R (Homo sapiens, UniProt P46663).
T2 construct: expressed in transfected cells; host or cells: CHO K1 cells (Chinese hamster ovary), stably transfected
T2 sequence (P46663 1-353): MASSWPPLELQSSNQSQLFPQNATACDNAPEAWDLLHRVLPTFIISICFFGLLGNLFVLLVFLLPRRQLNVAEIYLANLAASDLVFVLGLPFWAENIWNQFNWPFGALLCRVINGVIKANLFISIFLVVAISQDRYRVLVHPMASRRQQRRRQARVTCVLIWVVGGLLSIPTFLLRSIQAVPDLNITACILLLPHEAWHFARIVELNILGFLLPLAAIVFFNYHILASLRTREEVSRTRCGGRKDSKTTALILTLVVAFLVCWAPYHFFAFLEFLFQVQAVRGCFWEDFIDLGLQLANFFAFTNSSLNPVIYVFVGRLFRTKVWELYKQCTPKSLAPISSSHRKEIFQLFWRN
As to the kind of experiment: FLIPR Ca2+ functional assay, B1R antagonism, human B1R in CHO K1 cells. Conditions: test substance 10 μM; hB1R CHO K1 cells; agonist Lys-Des-Arg9 bradykinin at EC80; % of maximum achievable inhibition. Format: cell-based. How it is done: The agonistic or antagonistic action of substances on the bradykinin 1 receptor (B1R) of the human and rat species can be quantified with ectopically expressing cell lines (CHO K1 cells) and with the aid of a Ca^2+-sensitive dye (Fluo-4) using a fluorescent imaging plate reader (FLIPR). The value in % activation is based on the Ca^2+ signal after addition of Lys-Des-Arg^9 bradykinin (0.5 nM) or Des-Arg^9 bradykinin (100 nM). Antagonists lead to a suppression of the Ca^2+ influx following administration of the agonist. The % inhibition in comparison with the maximum achievable inhibition is indicated.
1. Functional Investigation on the Bradykinin 1 Receptor (B1R) The agonistic or antagonistic action of substances can be determined on the bradykinin 1 receptor (B1R) of the human and rat species with the following assay. According to this assay, the Ca^2+ inflow through the channel is quantified with the aid of a Ca^2+-sensitive dye (Fluo-4 type, Molecular Probes Europe BV, Leiden, Netherlands) in a fluorescent imaging plate reader (FLIPR, Molecular Devices, Sunnyvale, USA). 2. Method: Chinese hamster ovary cells (CHO K1 cells) which are stably transfected with the human B1R gene (hB1R cells) or the B1R gene of the rat (rB1R cells) are used. For functional investigations these cells are plated-out onto black 96-well plates with a clear base (BD Biosciences, Heidelberg, Germany or Greiner, Frickenhausen, Germany) in a density of 20,000-35,000 cells/well. Overnight the cells are incubated at 37° C. and 5% CO2 in culture medium (hB1R cells: Ham's Nutrient Mixture F12, Gibco Invitrogen GmbH, Karlsruhe, Germany or DMEM, Sigma-Aldrich, Taufkirchen, Germany; rB1R cells: D-MEM/F12, Gibco Invitrogen, Karlsruhe, Germany) with 10 vol. % FBS (foetal bovine serum, Gibco Invitrogen GmbH, Karlsruhe, Germany or PAN Biotech GmbH, Aidenbach, Germany).
On the following day the cells are loaded with 2.13 μM Fluo-4 (Molecular Probes Europe BV, Leiden, Netherlands) in HBSS buffer (Hank's buffered saline solution, Gibco Invitrogen GmbH, Karlsruhe, Germany) with 2.5 mM probenecid (Sigma-Aldrich, Taufkirchen, Germany) and 10 mM HEPES (Sigma-Aldrich, Taufkirchen, Germany) for 60 min at 37° C. The plates are subsequently washed twice with HBSS buffer, and HBSS buffer which additionally contains 0.1% BSA (bovine serum albumin; Sigma-Aldrich, Taufkirchen, Germany), 5.6 mM glucose and 0.05% gelatine (Merck KGaA, Darmstadt, Germany) is added. After a further incubation of 20 minutes at RT, the plates are inserted into the FLIPR for Ca^2+ measurement. Alternatively they are washed with buffer A (15 mM HEPES, 80 mM NaCl, 5 mM KCl, 1.2 mM CaCl2, 0.7 mM MgSO4, 2 g/l glucose, 2.5 mM probenecid) and loaded with buffer A with added 2.5 μM Fluo-4 and 0.025% Pluronic F127 (Sigma-Aldrich, Taufkirchen, Germany). The cells are then washed twice with buffer A and incubated for 30 minutes with buffer A, which additionally contains 0.05% BSA and 0.05% gelatine, at RT and then used for Ca^2+ measurement in the FLIPR. The Ca^2+-dependent fluorescence is measured here before and after addition of substances (λex=488 nm, λem=540 nm). The quantification is performed by measuring the highest fluorescence intensity (FC, fluorescence counts) over time.
The FLIPR protocol comprises two additions of substance. Test substances (10 μM) are first pipetted onto the cells and the Ca^2+ inflow is compared with the control (hB1R: Lys-Des-Arg^9 bradykinin >=50 nM; rB1R: Des-Arg^9 bradykinin 10 μM). The value in % activation based on the Ca^2+ signal after addition of Lys-Des-Arg^9 bradykinin (>=50 nM) or Des-Arg^9 bradykinin (10 μM) is obtained therefrom. After incubation for 10-20 minutes, Lys-Des-Arg^9 bradykinin (hB1R) or Des-Arg^9 bradykinin (rB1R) is applied in the EC80 concentration and the inflow of Ca^2+ is likewise determined.
Antagonists lead to a suppression of the Ca^2+ inflow. The % inhibition in comparison with the maximum achievable inhibition is calculated. […]

Regarding `CCC(C)NCc1ccc2c(c1)CCC(NC(=O)CC1c3cccn3CCN1S(=O)(=O)c1cccc(C(F)(F)F)c1)C2` (stereo not drawn) [Example 65, N-[6-[(1-Methyl-propylamino)-methyl]-1,2,3,4-tetrahydro-naphthalen-2-yl]-2-[2-[[3-(trifluoromethyl)phenyl]sulfonyl]-1,2,3,4-tetrahydro-pyrrolo[1,2-a]pyrazin-1-yl]-acetamide], the figures for the inhibition at 10 µM at B1R of the rat and at human B1R were 98.7% and 99.1%, respectively.

As for `O=C(CC1c2cccn2CCN1S(=O)(=O)c1cccc(Cl)c1Cl)NC1CCc2cc(CN3CCCCC3)ccc2C1` (stereo not drawn) [Example 28, 2-(2-(2,3-dichlorophenylsulfonyl)-1,2,3,4-tetrahydropyrrolo[1,2-a]pyrazin-1-yl)-N-(6-(piperidin-1-ylmethyl)-1,2,3,4-tetrahydronaphthalen-2-yl)acetamide], the figures for the inhibition at 10 µM on B1R of the rat and on human B1R were 100% and 99.5%, respectively.

As for `Cc1ccc(S(=O)(=O)N2CCn3cccc3C2CC(=O)NC2CCCc3cc(CNCc4ccccc4)ccc32)cc1` (stereo not drawn) [Example 127, N-[6-[(Benzylamino)-methyl]-1,2,3,4-tetrahydro-naphthalen-1-yl]-2-[2-(p-tolylsulfonyl)-1,2,3,4-tetrahydro-pyrrolo[1,2-a]pyrazin-1-yl]-acetamide], the inhibition at 10 µM at B1R of the rat came out at 101%; on human B1R it was 97.4%.

`Cc1ccc(S(=O)(=O)N2CCn3cccc3C2CC(=O)NC2CCCc3cc(CN4CCCC4)ccc32)cc1` (stereo not drawn) [Example 85, 2-[2-(p-Tolylsulfonyl)-1,2,3,4-tetrahydro-pyrrolo[1,2-a]pyrazin-1-yl]-N-[6-(pyrrolidin-1-yl-methyl)-1,2,3,4-tetrahydro-naphthalen-1-yl]-acetamide]: the inhibition at 10 µM at B1R of the rat was determined as 101%; at human B1R, 99.9%.

Turning to `Cc1ccc(S(=O)(=O)N2CCn3cccc3C2CC(=O)NC2CCCc3cc(CN4CCCCC4)ccc32)cc1Cl` (stereo not drawn) [Example 56, 2-[2-[(3-Chloro-4-methyl-phenyl)sulfonyl]-1,2,3,4-tetrahydro-pyrrolo[1,2-a]pyrazin-1-yl]-N-[6-(piperidin-1-yl-methyl)-1,2,3,4-tetrahydro-naphthalen-1-yl]-acetamide], the inhibition at 10 µM on B1R of the rat turned out to be 98%; on human B1R it was 99.7%.

On to `CN(C)Cc1ccc2c(c1)CCCC2NC(=O)CC1c2cccn2CCN1S(=O)(=O)c1cccc(C(F)(F)F)c1` (stereo not drawn) [Example 124, N-[6-(Dimethylaminomethyl)-1,2,3,4-tetrahydro-naphthalen-1-yl]-2-[2-[[3-(trifluoromethyl)phenyl]sulfonyl]-1,2,3,4-tetrahydro-pyrrolo[1,2-a]pyrazin-1-yl]-acetamide], for which the inhibition at 10 µM was 97.3% at B1R of the rat and 99.7% on human B1R.

Consider `COc1ccc2cc(S(=O)(=O)N3CCn4cccc4C3CC(=O)NC3Cc4ccc(CN5CCCCC5)cc4C3)ccc2c1` (stereo not drawn) [Example 48, 2-(2-(6-methoxynaphthalen-2-ylsulfonyl)-1,2,3,4-tetrahydropyrrolo-[1,2-a]pyrazin-1-yl)-N-(5-(piperidin-1-ylmethyl)-2,3-dihydro-1H-inden-2-yl)-acetamide], for which the inhibition at 10 µM was found to be 105% on B1R of the rat and 99.6% at human B1R.

Consider `COc1ccc2cc(S(=O)(=O)N3CCn4cccc4C3CC(=O)NC3CCCc4cc(CN5CCN(C)CC5)ccc43)ccc2c1` (stereo not drawn) [Example 117, 2-[2-[(6-Methoxy-naphthalen-2-yl)sulfonyl]-1,2,3,4-tetrahydro-pyrrolo[1,2-a]pyrazin-1-yl]-N-[6-[(4-methyl-piperazin-1-yl)-methyl]-1,2,3,4-tetrahydro-naphthalen-1-yl]-acetamide], for which the results for the inhibition at 10 µM at B1R of the rat and on human B1R were 98.8% and 100%, respectively.

As for `Cc1ccc(S(=O)(=O)N2CCn3cccc3C2CC(=O)NC2CCCc3cc(CN(C)C)ccc32)cc1` (stereo not drawn) [Example 107, N-[6-(Dimethylaminomethyl)-1,2,3,4-tetrahydro-naphthalen-1-yl]-2-[2-(p-tolylsulfonyl)-1,2,3,4-tetrahydro-pyrrolo[1,2-a]pyrazin-1-yl]-acetamide], the inhibition at 10 µM at B1R of the rat was found to be 98.4%; at human B1R, 99.3%.

In the case of `Cc1ccc(S(=O)(=O)N2CCn3cccc3C2CC(=O)NC2CCc3cc(CN4CCCCC4)ccc3C2)cc1Cl` (stereo not drawn) [Example 50, 2-[2-[(3-Chloro-4-methyl-phenyl)sulfonyl]-1,2,3,4-tetrahydro-pyrrolo[1,2-a]pyrazin-1-yl]-N-[6-(piperidin-1-yl-methyl)-1,2,3,4-tetrahydro-naphthalen-2-yl]-acetamide], the inhibition at 10 µM at B1R of the rat is 99.5%; at human B1R, 99.7%.

As to `COc1ccc2cc(S(=O)(=O)N3CCn4cccc4C3CC(=O)NC3CCc4cc(CN5CCN(C)CC5)ccc4C3)ccc2c1` (stereo not drawn) [Example 99, 2-[2-[(6-Methoxy-naphthalen-2-yl)sulfonyl]-1,2,3,4-tetrahydro-pyrrolo[1,2-a]pyrazin-1-yl]-N-[6-[(4-methyl-piperazin-1-yl)-methyl]-1,2,3,4-tetrahydro-naphthalen-2-yl]-acetamide], the inhibition at 10 µM at B1R of the rat was 101%; at human B1R, 99.8%.

For `Cc1ccc(S(=O)(=O)N2CCn3cccc3C2CC(=O)NC2CCc3cc(CNCc4ccccc4)ccc3C2)cc1Cl` (stereo not drawn) [Example 51, N-[6-[(Benzylamino)-methyl]-1,2,3,4-tetrahydro-naphthalen-2-yl]-2-[2-[(3-chloro-4-methyl-phenyl)sulfonyl]-1,2,3,4-tetrahydro-pyrrolo[1,2-a]pyrazin-1-yl]-acetamide], the values for the inhibition at 10 µM at B1R of the rat and on human B1R were 103% and 99.5%, respectively.
